Results taken from patent publication US6747060B2, “Non-natural galanin receptor ligands” (Kemia, Inc., priority 2002, dated 2004).
Entries after “also recorded” stand apart in the source; their conditions may differ. Like-named read-outs stand apart in the source and are kept apart here. Non-standard residues stand in square brackets, D forms with d. Residues, ends and D or L forms follow the SMILES beside them. *: point of attachment. Fmoc = O=C(OCC1c2ccccc2-c2ccccc21)*; AMC = Cc1cc(=O)oc2cc(N*)ccc12; Cha = N[CH](CC1CCCCC1)C(=O)O

Columns and labels:
[1] = tested on: self sustaining status epilepticus; experiment: self sustaining status epilepticus (SSSE) induced by PPS in rats; format: in vivo
Protocol: The effects of intrahippocampal galnon administration was evaluated in rats. SSSE consisted of recurrent limbic seizures of varying intensity (stages 1-5), which lasted for 12-18 h after PPS was discontinued. Behavioral seizures were accompanied by high-frequency (13+Hz) and amplitude (1+mV) discharges with the duration of individual events between 30 s and 3 min. Between the seizures, ictal spikes with the amplitude of 0.8 mV and more and frequency of 3 Hz and less were continuously generated (spike frequency of 3 Hz and more was recognized as a seizure)^5.

adenylate cyclase = adenylate cyclase assay (basal and forskolin-stimulated cAMP production) in membranes from rat ventral hippocampi; format: biochemical
Protocol: (§1) The mixtures of ligands and individual compounds were screened to displace [^125I]-galanin in equilibrium binding assay using membrane preparations from rat hippocampi, rich in galanin binding sites as described in detail previously^11. Effect of galnon on basal and forskolin-stimulated cAMP production were performed essentially as described by Valkna et al.^12 in membranes from rat ventral hippocampi.

galanin receptors = experiment: [125I]-galanin displacement, equilibrium binding in rat ventral hippocampal membranes; details: membranes from rat ventral hippocampus
Protocol: as §1

PTZ-induced seizures = PTZ-induced seizures in mice
Protocol: The experiments were performed on C57B1 male mice (weight 20-30 g). Animals to be treated with galanin, or M35 were anaesthetized with ketamine (100 mg/kg i.p.) and xylazine (15 mg/kg i.p.) and stereotaxically implanted i.c.v. with guide cannulae (0.6 mm internal diameter). Postoperative recovery was 3-5 days. Galanin, or M35 were injected into the lateral brain ventricle of freely moving mice by means of Hamilton microsyringe in the amount 0.5 nmol, in 0.5 μl, at a rate […]. Control animals were treated with saline.
Galnon was dissolved in the 50% DMSO in saline and administered i.p. in a dose of 2 mg/kg […] prior to PTZ injection (when the effect of galnon alone was studied) or […] after M35 injection (in co-administration studies). Control animals were treated with 50% DM50 in saline.
Seizures were induced by i.p. injection of PTZ (Research Biochemicals, Natick, Massachusetts) in a dose of 40 mg/kg (when studying the effects of galanin only, or galnon only) or 30 mg/kg (when studying the effect of M35 and galnon+M35). The animals were placed in individual Plexiglas cages and videotaped for 15 min after PTZ administration. Seizures were analyzed off-line by a unbiased investigator and quantified using the following scale: 0: no motor seizures; 1: staring, mouth, or facial movements; 2: head nodding or isolated twitches; 3: unilateral bilateral forelimb clonus; 4: rearing; 5: rearing and falling; 6: tonic extension of hind limbs or death. The latency of each behavioral seizure type and the highest seizure score were recorded. […] Statistical methods used: t-test (latency) and Mann-Whitney (seizure score).

galanin binding sites = experiment: autoradiographic [125I]-galanin binding assay on rat spinal cord sections; details: rat spinal cord sections L4, L5; galnon at 1, 3 and 5 μM
Protocol: Rats were decapitated, the spinal cord lumbar segments L4 and L5 were dissected out, rapidly frozen, cut in a cryostat and processed for the autoradiographic ligand binding assay of Young and Kuhar^13, as described previously^14. Galnon was added at 1, 3 and 5 μM concentration. The sections were processed in a BAS3000 Bio-Imagine Analyzer (Fuji) and quantified and then exposed to Hyperfilm-Max X-ray film (Arnersham Pharmacia Biotech).

human GalR1 = biological target: T1, human GalR1 (Homo sapiens, UniProt P47211); details: antagonists, literature reports; cited from earlier work
T1 sequence (P47211 1-349): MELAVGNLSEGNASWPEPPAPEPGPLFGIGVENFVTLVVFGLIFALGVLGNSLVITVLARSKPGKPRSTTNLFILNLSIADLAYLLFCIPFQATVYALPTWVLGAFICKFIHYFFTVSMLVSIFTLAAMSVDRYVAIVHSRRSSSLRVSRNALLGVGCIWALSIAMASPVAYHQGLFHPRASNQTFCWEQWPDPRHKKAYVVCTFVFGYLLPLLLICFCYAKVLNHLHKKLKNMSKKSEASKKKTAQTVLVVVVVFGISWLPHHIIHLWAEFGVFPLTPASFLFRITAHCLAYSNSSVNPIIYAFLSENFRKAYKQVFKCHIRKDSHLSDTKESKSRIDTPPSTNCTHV

[2] = equimolar galnon into hippocampus before M35 5 nmol, 7 min PPS
[3] = galnon 1 nmol, control rats injected with scrambled PNA

Row | Molecule | anticonvulsant effect in the presence of GalR antagonist M35 ([1]; M35 0.5 nmol pretreatment) | duration of SSSE [1, 2] [min] | total seizure time [1, 2] [min] | effect on self-sustaining seizures ([1]; galnon 1 nmol, PNA1-pretreated animals (GalR1 down-regulated)) | reduction of duration of SSSE [1, 3] [fold] | reduction of total seizure time [1, 3] [fold] | effect on SSSE ([1]; intrahippocampal injection 10 min after the end of PPS) | SSSE duration ([1]; intrahippocampal, maximal dose 5 nmol, 30 min PPS) [min] | EC50 (adenylate cyclase; basal, read-out: EC50, M of inhibition of adenylate cyclase activity (basal)) [µM] | EC50 (adenylate cyclase; forskolin stimulated, read-out: EC50, M of inhibition of adenylate cyclase activity (forskolin stimulated)) [µM] | Ki (galanin receptors) [µM] | effect on seizure-facilitating effect of M35 (PTZ-induced seizures; M35 i.c.v. co-administered with galnon i.p., PTZ 30 mg/kg) | maximal seizure score (PTZ-induced seizures; PTZ 40 mg/kg i.p., 2 mg/kg i.p. 15 min prior to PTZ, scale 0-6) | anticonvulsant effect compared with galanin i.c.v. 0.5 nmol (PTZ-induced seizures; PTZ 40 mg/kg, galnon 2 mg/kg i.p.) | behavioral side effects (PTZ-induced seizures; mice, galnon 2 mg/kg i.p.) | displacement of [125I]-galanin, autoradiographic signal (galanin binding sites) | IC50 (human GalR1) [µM]
1 | Cc1cc(=O)oc2cc(NC(=O)C(CCCCN)NC(=O)C(CC3CCCCC3)NC(=O)OCC3c4ccccc4-c4ccccc43)ccc12 (stereo not drawn) [galnon, 1-[5-amino-1-(4-methyl-2-oxo-2H-chromen-7-ylcarbamoyl)-pentylcarbamoyl]-2-cyclohexyl-ethyl-carbamic acid 9H-fluoren-9-ylmethyl ester] (Fmoc-[Cha]-Lys-{AMC}; configuration not given here) | attenuated; also recorded: abolished | 37 ± 8 | 13 ± 4 | no effect | 7 | 9 | attenuated SSSE in a dose dependent manner | 28 ± 8 | 8 | 10 | 4.8 | completely abolished | 1.45 | comparable to that of galanin | No obvious behavioral side effects | significant increase in binding as compared to controls was only seen at the concentration of 5 μM | 
2 | dithiipin-1,1,4,4-tetroxide |  |  |  |  |  |  |  |  |  |  |  |  |  |  |  |  | 0.17
3 | COC(=O)C1=C[C@@H](O)[C@@H](O)[C@H](O)[C@@H]1Oc1c(Cl)c(C)c(Cl)c2c1C(=O)[C@@]1(O2)C(OC)=CC(=O)C=C1C(=O)OC [Sch 202596] |  |  |  |  |  |  |  |  |  |  |  |  |  |  |  |  | 1.4
